From patent publication US9868719B2, “Compounds with pesticidal activity” (BAYER CROPSCIENCE AKTIENGESELLSCHAFT, priority 2013, dated 2018)
Like-named read-outs stand apart in the source and are kept apart here. Each block holds one compound with its values, some of them ahead of it.

Columns and labels:
Cooperia curticei = test: microbe, parasite or virus in culture; settings: 120 h, read-out: activity (larval mortality)
Procedure: Cooperia curticei-Test (COOPCU)
(§1) Solvent: dimethyl sulfoxide
(§2) To produce a suitable preparation of active compound, 10 mg of active compound are dissolved in 0.5 ml solvent, and the concentrate is diluted with “Ringer's solution” to the desired concentration.
Approximately 40 nematode larvae (Cooperia curticei) are transferred into a test tube containing the compound solution.
After 5 days percentage of larval mortality is recorded, 100% efficacy means all larvae are killed; 0% efficacy means no larvae are killed.

Haemonchus contortus = test: Haemonchus contortus-Test (HAEMCO), larval mortality; settings: 120 h, read-out: activity (larval mortality)
Procedure: Haemonchus contortus-Test (HAEMCO)
as §1, §2
Approximately 40 larvae of the red stomach worm (Haemonchus contortus) are transferred into a test tube containing compound solution.
After 5 days percentage of larval mortality are recorded, 100% efficacy means all larvae are killed, 0% efficacy means no larvae are killed.

logP = settings: for chromatographic logP: HCOOH (formic acid)
Meloidogyne incognita = test: Meloidogyne incognita-Test, gall formation on salad seedlings; assay type: in vivo; settings: 336 h, read-out: nematicidal activity (on the basis of gall formation)
Procedure: Meloidogyne incognita-Test
Solvent: 125.0 parts by weight of acetone
To produce a suitable preparation of active compound, 1 part by weight of active compound is mixed with the stated amount of solvent, and the concentrate is diluted with water to the desired concentration.
Vessels are filled with sand, a solution of the active ingredient, a suspension containing eggs and larvae of the southern root-knot nematode (Meloidogyne incognita) and salad seeds. The salad seeds germinate and the seedlings grow. Galls develop in the roots.
After 14 days the nematicidal activity is determined on the basis of the percentage of gall formation. 100% means no galls were found and 0% means the number of galls found on the roots of the treated plants was equal to that in untreated control plants.

[1] = system: Nippostrongylus brasiliensis; test: Nippostrongylus brasiliensis-Test (NIPOBR), in vitro efficacy, acetylcholine esterase readout; settings: 10 μg/ml, read-out: activity (reduction of AChe compared to negative control)
Procedure: Nippostrongylus brasiliensis-Test (NIPOBR) (In Vitro Efficacy Test)
Adult Nippostrongylus brasiliensis were washed with saline buffer containing 100 U/ml penicillin, 0.1 mg/ml streptomycin and 2.5 μg/ml amphotericin B. Test compounds were dissolved in DMSO, and worms were incubated in medium in a final concentration of 10 μg/ml. An aliquot of the medium was used to determine the acetylcholine esterase activity in comparison to a negative control. The principle of measuring acetylcholine esterase as readout for anthelmintic activity was described in Rapson et al (1986) and Rapson et al (1987).

Compound: O=C(NCCc1ncc(-n2ccnc2)cc1Cl)c1ccccc1C(F)(F)F [Example 1]
- mortality at 20 ppm (Cooperia curticei; 20 ppm, after 5 days): 100%
- mortality at 20 ppm (Haemonchus contortus; 20 ppm, after 5 days): 80%
- chromatographic logP (logP): 1.21

Compound: O=C(NCCc1ncc(-n2cc(C(F)(F)F)cn2)cc1Cl)c1ccccc1C(F)(F)F [Example 2]
- mortality at 20 ppm (Cooperia curticei): 100%
- mortality at 20 ppm (Haemonchus contortus): 100%
- pest or weed control at 20 ppm (Meloidogyne incognita): 1%
- inhibition at 10 µg/mL [1]: ≥ 60%
- chromatographic logP (physchem): 3.65

Compound: O=C(NCCc1ncc(-n2ccc(C(F)(F)F)n2)cc1Cl)c1ccccc1C(F)(F)F [Example 3]
- mortality at 20 ppm (Cooperia curticei): 100%
- mortality at 20 ppm (Haemonchus contortus): 100%
- pest or weed control at 20 ppm (Meloidogyne incognita): 1%
- inhibition at 10 µg/mL [1]: ≥ 60%
- chromatographic logP (physchem): 3.68

Compound: O=C(NCCc1ncc(-n2cccn2)cc1Cl)c1ccccc1C(F)(F)F [Example 4, N-{2-[3-chloro-5-(1H-pyrazol-1-yl)pyridin-2-yl]ethyl}-2-(trifluoromethyl)benzamide]
- mortality at 20 ppm (Cooperia curticei): 100%
- mortality at 20 ppm (Haemonchus contortus): 100%
- pest or weed control at 20 ppm (Meloidogyne incognita): 1%
- inhibition at 10 µg/mL [1]: ≥ 60%
- chromatographic logP (physchem): 2.69

Compound: O=C(NCCc1ncc(-n2cncn2)cc1Cl)c1ccccc1C(F)(F)F [Example 5]
- mortality at 20 ppm (Haemonchus contortus): 90%
- pest or weed control at 20 ppm (Meloidogyne incognita; 20 ppm, after 14 days): 1%
- chromatographic logP (logP): 2.06

Compound: O=C(NCCc1ncc(-c2ccc(Cl)nc2)cc1Cl)c1ccccc1C(F)(F)F [Example 6]
- mortality at 20 ppm (Cooperia curticei): 100%
- mortality at 20 ppm (Haemonchus contortus): 100%
- pest or weed control at 20 ppm (Meloidogyne incognita; 20 ppm, after 14 days): 1%
- chromatographic logP (logP): 3

Compound: O=C(NCCc1ncc(-c2ccc(C(F)(F)F)nc2)cc1Cl)c1ccccc1C(F)(F)F [Example 7, N-{2-[5-chloro-6′-(trifluoromethyl)-3,3′-bipyridin-6-yl]ethyl}-2-(trifluoromethyl) benzamide]
- mortality at 20 ppm (Cooperia curticei): 100%
- mortality at 20 ppm (Haemonchus contortus): 90%
- pest or weed control at 20 ppm (Meloidogyne incognita; 20 ppm, after 14 days): 90%
- chromatographic logP (logP): 3.29

Compound: O=C(NCC(F)(F)c1ncc(-c2ccoc2)cc1Cl)c1ccccc1C(F)(F)F [Example 8]
- mortality at 20 ppm (Cooperia curticei): 100%

Compound: Cc1occc1-c1cnc(C(F)(F)CNC(=O)c2ccccc2C(F)(F)F)c(Cl)c1 [Example 9]
- mortality at 20 ppm (Cooperia curticei): 100%
- mortality at 20 ppm (Haemonchus contortus): 90%

Compound: O=C(NCC(F)(F)c1ncc(-c2cncc(F)c2)cc1Cl)c1ccccc1C(F)(F)F [Example 10]
- mortality at 20 ppm (Cooperia curticei): 100%
- mortality at 20 ppm (Haemonchus contortus): 100%
- pest or weed control at 20 ppm (Meloidogyne incognita): 1%
- inhibition at 10 µg/mL [1]: ≥ 60%
- chromatographic logP (physchem): 2.84

Compound: O=C(NCC(F)(F)c1ncc(-c2ccc(C(F)(F)F)nc2)cc1Cl)c1ccccc1C(F)(F)F [Example 11, N-{2-[5-chloro-6′-(trifluoromethyl)-3,3′-bipyridin-6-yl]-2,2-difluoroethyl}-2-(trifluoromethyl) benzamide]
- mortality at 20 ppm (Cooperia curticei): 100%
- mortality at 20 ppm (Haemonchus contortus): 90%
- chromatographic logP (logP): 3.42

Compound: O=C(NCC(F)(F)c1ncc(-c2ccc(Cl)nc2)cc1Cl)c1ccccc1C(F)(F)F [Example 12]
- mortality at 20 ppm (Cooperia curticei): 100%
- mortality at 20 ppm (Haemonchus contortus): 90%
- pest or weed control at 20 ppm (Meloidogyne incognita; 20 ppm, after 14 days): 90%
- chromatographic logP (logP): 3.21

- chromatographic logP (logP): 1.86
Compound: Cc1ncccc1-c1cnc(C(F)(F)CNC(=O)c2ccccc2C(F)(F)F)c(Cl)c1 [Example 13]
- mortality at 20 ppm (Cooperia curticei; 20 ppm, after 5 days): 90%
- pest or weed control at 20 ppm (Meloidogyne incognita; 20 ppm, after 14 days): 90%

Compound: O=C(NCC(F)(F)c1ncc(-c2cccnc2Cl)cc1Cl)c1ccccc1C(F)(F)F [Example 14]
- mortality at 20 ppm (Cooperia curticei): 100%
- mortality at 20 ppm (Haemonchus contortus): 100%
- pest or weed control at 20 ppm (Meloidogyne incognita): 1%
- inhibition at 10 µg/mL [1]: ≥ 60%
- chromatographic logP (physchem): 3

Compound: O=C(NCC(F)(F)c1ncc(-c2cncc(Cl)c2)cc1Cl)c1ccccc1C(F)(F)F [Example 15]
- mortality at 20 ppm (Cooperia curticei): 100%
- mortality at 20 ppm (Haemonchus contortus): 100%
- pest or weed control at 20 ppm (Meloidogyne incognita): 90%
- inhibition at 10 µg/mL [1]: ≥ 60%
- chromatographic logP (physchem): 3.17

Compound: O=C(NCC(F)(F)c1ncc(-c2ccc(F)nc2)cc1Cl)c1ccccc1C(F)(F)F [Example 16]
- mortality at 20 ppm (Cooperia curticei): 100%
- mortality at 20 ppm (Haemonchus contortus): 100%
- pest or weed control at 20 ppm (Meloidogyne incognita): 1%
- inhibition at 10 µg/mL [1]: ≥ 60%
- chromatographic logP (physchem): 3.02

Compound: CC(C)Oc1ccc(-c2cnc(C(F)(F)CNC(=O)c3ccccc3C(F)(F)F)c(Cl)c2)cn1 [Example 17]
- mortality at 20 ppm (Cooperia curticei): 100%
- mortality at 20 ppm (Haemonchus contortus): 90%
- chromatographic logP (logP): 4.15

Compound: O=C(NCC(F)(F)c1ncc(-c2ccc(Cl)nc2Cl)cc1Cl)c1ccccc1C(F)(F)F [Example 18]
- mortality at 20 ppm (Cooperia curticei): 100%
- mortality at 20 ppm (Haemonchus contortus): 80%
- pest or weed control at 20 ppm (Meloidogyne incognita; 20 ppm, after 14 days): 1%
- chromatographic logP (logP): 3.68

Compound: O=C(NCC(F)(F)c1ncc(-c2cccnc2)cc1Cl)c1ccccc1C(F)(F)F [Example 19]
- mortality at 20 ppm (Cooperia curticei): 100%
- mortality at 20 ppm (Haemonchus contortus): 100%
- inhibition at 10 µg/mL [1]: ≥ 60%
- chromatographic logP (physchem): 2.27

Compound: O=C(NCC(F)(F)c1ncc(-c2ccc(OCC(F)(F)F)nc2)cc1Cl)c1ccccc1C(F)(F)F [Example 20]
- mortality at 20 ppm (Cooperia curticei): 100%
- mortality at 20 ppm (Haemonchus contortus): 100%
- pest or weed control at 20 ppm (Meloidogyne incognita; 20 ppm, after 14 days): 90%
- chromatographic logP (logP): 3.94

- chromatographic logP (logP): 2.88
Compound: O=C(NCC(F)(F)c1ncc(-c2cnccc2Cl)cc1Cl)c1ccccc1C(F)(F)F [Example 21]
- mortality at 20 ppm (Cooperia curticei): 80%

Compound: O=C(NCC(F)(F)c1ncc(-c2ccncc2)cc1Cl)c1ccccc1C(F)(F)F [Example 22]
- mortality at 20 ppm (Cooperia curticei): 100%
- mortality at 20 ppm (Haemonchus contortus): 90%
- chromatographic logP (logP): 2

Compound: O=C(NCC(F)(F)c1ncc(-c2ccnc(F)c2)cc1Cl)c1ccccc1C(F)(F)F [Example 23]
- mortality at 20 ppm (Cooperia curticei): 100%
- mortality at 20 ppm (Haemonchus contortus): 100%
- pest or weed control at 20 ppm (Meloidogyne incognita; 20 ppm, after 14 days): 1%
- chromatographic logP (logP): 2.96

Compound: O=C(NCC(F)(F)c1ncc(-c2ccnc(Cl)c2)cc1Cl)c1ccccc1C(F)(F)F [Example 24]
- mortality at 20 ppm (Cooperia curticei): 100%
- mortality at 20 ppm (Haemonchus contortus): 100%
- pest or weed control at 20 ppm (Meloidogyne incognita; 20 ppm, after 14 days): 1%
- chromatographic logP (logP): 3.17

Compound: O=C(NCC(F)(F)c1ncc(-c2cc(Cl)nc(Cl)c2)cc1Cl)c1ccccc1C(F)(F)F [Example 25]
- mortality at 20 ppm (Cooperia curticei): 100%
- mortality at 20 ppm (Haemonchus contortus): 100%
- pest or weed control at 20 ppm (Meloidogyne incognita): 1%
- inhibition at 10 µg/mL [1]: ≥ 60%
- chromatographic logP (physchem): 3.84

Compound: O=C(NCC(F)(F)c1ncc(-n2cc(C(F)(F)F)cn2)cc1Cl)c1ccccc1C(F)(F)F [Example 28]
- mortality at 20 ppm (Cooperia curticei): 100%
- mortality at 20 ppm (Haemonchus contortus): 100%
- pest or weed control at 20 ppm (Meloidogyne incognita): 1%
- inhibition at 10 µg/mL [1]: ≥ 60%

- chromatographic logP (logP): 2.57
Compound: O=C(NCC(F)(F)c1ncc(-c2ccc(F)cn2)cc1Cl)c1cccnc1C(F)(F)F [Example 29]
- pest or weed control at 20 ppm (Meloidogyne incognita; 20 ppm, after 14 days): 1%

- chromatographic logP (logP): 2.75
Compound: O=C(NCC(F)(F)c1ncc(-c2ccc(F)cn2)cc1Cl)c1nccnc1C(F)(F)F [Example 30]

- chromatographic logP (logP): 3.94
Compound: CC(F)(CNC(=O)c1ccccc1C(F)(F)F)c1ncc(-c2ccc(F)nc2)cc1Cl (centres unmarked) [Example 31]

- chromatographic logP (logP): 2.66
Compound: CC(F)(CNC(=O)c1cccnc1C(F)(F)F)c1ncc(-c2ccc(F)nc2)cc1Cl (centres unmarked) [Example 32]

- chromatographic logP (logP): 3.26
Compound: CC(F)(CNC(=O)c1ccccc1C(F)(F)F)c1ncc(-c2ccc(Cl)nc2)cc1Cl (centres unmarked) [Example 33]

- logP (logP): 3.55
Compound: CC(F)(CNC(=O)c1ccccc1C(F)(F)F)c1ncc(-c2ccc(C(F)(F)F)nc2)cc1Cl (centres unmarked) [Example 35]

- chromatographic logP (logP): 3.17
Compound: CC(F)(CNC(=O)c1cccnc1C(F)(F)F)c1ncc(-c2ccc(C(F)(F)F)nc2)cc1Cl (centres unmarked) [Example 36]

- chromatographic logP (logP): 3.79
Compound: Cc1ccc(-c2cnc(C(C)(F)CNC(=O)c3ccccc3C(F)(F)F)c(Cl)c2)cn1 (centres unmarked) [Example 37]

- chromatographic logP (logP): 1.69
Compound: Cc1ccc(-c2cnc(C(C)(F)CNC(=O)c3cccnc3C(F)(F)F)c(Cl)c2)cn1 (centres unmarked) [Example 38]

- chromatographic logP (logP): 2.99
Compound: CC(F)(CNC(=O)c1ccccc1C(F)(F)F)c1ncc(-c2cncc(F)c2)cc1Cl (centres unmarked) [Example 39]

- chromatographic logP (logP): 2.49
Compound: CC(F)(CNC(=O)c1cccnc1C(F)(F)F)c1ncc(-c2cncc(F)c2)cc1Cl (centres unmarked) [Example 40]

- chromatographic logP (logP): 3.28
Compound: O=C(NCC(F)(F)c1ncc(-c2cc(F)c(F)cn2)cc1Cl)c1ccccc1C(F)(F)F [Example 41]

- chromatographic logP (logP): 1.97
Compound: CN(C)c1ccc(-c2cnc(C(F)(F)CNC(=O)c3ccccc3C(F)(F)F)c(Cl)c2)cn1 [Example 42]
